The source of these data is patent publication US9382208B1, “Negative allosteric modulators of metabotropic glutamate receptor 2” (Vanderbilt University, priority 2015, dated 2016).

In test [1] the test system is Helpless (H) mice. The note with it: cited from earlier work; for activity in the tail suspension test: Helpless (H) mice.
Test [2] deals with group II mGlu receptors (mGlu2 and mGlu3). The note with it: cited from earlier work.
Test [3] relates to Aβ-induced neurodegeneration. Particulars: cited from earlier work.
Test [4] has as its system C57B16/J mice. Particulars: FST; cited from earlier work.
Test [5] relates to mice. The note with it: cited from earlier work.
The subject of test [6] is rat. The note with it: rat FST, normal animals; cited from earlier work.
Test [7] deals with mouse. Particulars: mouse TST, normal animals; cited from earlier work.
The subject of test [8] is central mGlu2 and mGlu3 receptors. Particulars: in vivo; cited from earlier work.
The conditions of test [9]: CFS model; cited from earlier work.
Test [10] concerns the target T1, rat mGlu2 (Rattus norvegicus, UniProt P31421).
T1 construct: expressed in transfected cells
In words: mGlu2 Ca2+ flux assay. The test is classed as cell-based. Particulars: for IC50: Gα15 HEK293 cells stably expressing rat mGlu2, glutamate EC80 addition, read-out: rat mGlu2 IC50; for remaining activity at 30 µM: amplitude of response in the presence of 30 μM test compound as percentage of maximal response to glutamate, read-out: rat mGlu2 Glu max (%). Put shortly: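 Gα15 HEK293 cells stably expressing rat mGlu2, Fluo-4 loaded; compound added, then glutamate at EC20 after 2.3 min and EC80 afterward, calcium flux read as F/F0. Peak amplitude around EC80 addition normalized to glutamate max; IC50 by unconstrained 4-parameter fit, top concentration 30 μM.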

Test [11] concerns social isolation-reared mice. The note with it: cited from earlier work.
Test [12] concerns olfactory bulbectomized rats. Particulars: repeated administration for 14 days; cited from earlier work.
The conditions of test [13]: treatment for 7 days; cited from earlier work.

The term IC50 denotes the midpoint of a concentration-inhibition curve.

Like-named read-outs stand apart in the source and are kept apart here.

T1 sequence (P31421 19-872): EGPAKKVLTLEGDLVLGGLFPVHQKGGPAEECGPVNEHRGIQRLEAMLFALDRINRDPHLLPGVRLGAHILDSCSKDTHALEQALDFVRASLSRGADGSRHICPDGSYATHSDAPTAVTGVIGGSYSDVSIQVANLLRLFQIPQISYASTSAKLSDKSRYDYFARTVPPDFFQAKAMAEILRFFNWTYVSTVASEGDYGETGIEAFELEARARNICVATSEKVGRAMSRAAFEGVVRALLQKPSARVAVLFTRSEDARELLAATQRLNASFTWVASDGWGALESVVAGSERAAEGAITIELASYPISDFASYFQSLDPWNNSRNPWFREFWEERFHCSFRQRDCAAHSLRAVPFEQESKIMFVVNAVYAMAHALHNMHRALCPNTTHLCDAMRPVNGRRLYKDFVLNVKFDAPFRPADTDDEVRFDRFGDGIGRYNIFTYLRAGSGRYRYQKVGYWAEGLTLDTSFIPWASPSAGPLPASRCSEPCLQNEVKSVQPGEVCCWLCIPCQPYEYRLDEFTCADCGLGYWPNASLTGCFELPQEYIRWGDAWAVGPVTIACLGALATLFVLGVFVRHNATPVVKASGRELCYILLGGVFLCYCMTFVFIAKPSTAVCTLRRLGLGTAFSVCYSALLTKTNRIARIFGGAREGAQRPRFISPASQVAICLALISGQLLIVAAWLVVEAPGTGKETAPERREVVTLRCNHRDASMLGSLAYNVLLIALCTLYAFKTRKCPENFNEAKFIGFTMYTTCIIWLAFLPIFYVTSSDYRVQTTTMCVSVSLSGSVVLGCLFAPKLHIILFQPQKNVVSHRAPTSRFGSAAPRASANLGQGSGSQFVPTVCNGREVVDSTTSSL

Take `CNCCC(Oc1ccc(C(F)(F)F)cc1)c1ccccc1` (centres unmarked) [fluoxetine]: the “antidepressant effect in helpless mice” value in test [1] (chronic (21 days) treatment) was “full antidepressant effect”.

On to `CCCCCCCOC(=O)[C@@]1(F)[C@@H]2C[C@@H](OCc3ccc(Cl)c(Cl)c3)[C@@](N)(C(=O)O)[C@@H]21` [BCI-838], for which the “levels of monomeric and oAβ peptides in the hippocampus and cortex” value in test [2] (three months of treatment, two AD mouse models) is listed as “decreased”. Further, in test [2] (three months of treatment), the “Dutch APP transgene-associated learning and memory impairment” value is “reversed”; the anxiolytic effects result is “anxiolytic effects”. Moreover, the “hippocampal progenitor cell proliferation” value in test [2] (wild-type and Alzheimer's diseased mice, 3 months) is reported as “stimulated”.

For `N[C@](CC1c2ccccc2Oc2ccccc21)(C(=O)O)[C@H]1C[C@@H]1C(=O)O` [LY341495], in [1], the “activity in the tail suspension test” value is on record as “active”. Also, the “antidepressant effect in helpless mice” value in test [1] (acute administration) is given as “potent antidepressant effect”. In addition, the Aβ-induced neurodegeneration entry in [3] is listed as “prevented”. Further, the immobility time entry in test [4] is “dose-dependently reduced”. In addition, in test [5], the marble-burying behavior result is recorded as “significantly reduce marble-burying behavior”. For the same molecule, the antidepressant-like effects entry in test [6] and in test [7] was “Antidepressant-like effects” throughout. In test [8], the “hypolocomotor effect of mGlu2/3 agonist (LY379268)” value is listed as “achieved the same result”.

Consider `CCS(=O)(=O)N(Cc1cccnc1)c1cccc(-c2ccc(C#N)cc2)c1` [LY566332], for which the Aβ-induced neurodegeneration entry in [3] is “amplified”.

With `CN1C(=O)CN=C(c2ccccc2)c2cc(Cl)ccc21` [diazepam], the freezing behavior result in test [9] is given as “significantly decreased”.

With `Cc1cc(-c2cccc(C3=Nc4cc(C)c(C(F)(F)F)cc4NC(=O)C3)c2)cc(C)n1` [RO4491533], in test [1], the “activity in the tail suspension test” value is “active”. The immobility time entry in [4] is “dose-dependently reduced”. The “hypolocomotor effect of mGlu2/3 agonist (LY379268)” value in test [8] is “reversed the hypolocomotor effect”.

Turning to `NC(=O)c1cn(-c2ccc(F)cc2)c2ccc(COc3ccncc3F)cc2c1=O` [Compound 32, 1-(4-fluorophenyl)-6-(((3-fluoropyridin-4-yl)oxy)methyl)-4-oxo-1,4-dihydroquinoline-3-carboxamide], in [10], the IC50 came to 243 ± 63 nM and the remaining activity at 30 µM amounted to 1.83 ± 0.2%.

`NC(=O)c1cn(-c2ccc(F)cc2)c2ccc(CCc3ccccn3)cc2c1=O` [Compound 11, 1-(4-fluorophenyl)-4-oxo-6-(2-(pyridin-2-yl)ethyl)-1,4-dihydroquinoline-3-carboxamide]: in [10], the IC50 came out at 2590 nM and the remaining activity at 30 µM worked out at 0.92%.

Take `NC(=O)c1cn(-c2ccc(F)cc2)c2ccc(CN3CCN(CC(F)(F)F)CC3)cc2c1=O` [Compound 81, 1-(4-fluorophenyl)-4-oxo-6-((4-(2,2,2-trifluoroethyl)piperazin-1-yl)methyl)-1,4-dihydroquinoline-3-carboxamide]: in test [10], the IC50 was found to be 753 nM and the remaining activity at 30 µM stood at 1.19%.

On to `N[C@]1(C(=O)O)[C@H]2[C@@H](C[C@H]1OCc1ccc(Cl)c(Cl)c1)[C@]2(F)C(=O)O` [MGS0039], for which, in [11], the “immobility in the FST” value was “reversed the increased immobility”. Besides, in test [12], the “hyperactivity in the open field test” value is reported as “attenuated the hyperactivity” and the “learning deficit in the passive avoidance test” value was “attenuated the learning deficit”. In addition, the “number of escape failures” value in [13] is reported as “significantly reduced”. Also, the freezing behavior entry in test [9] was “significantly decreased”. In [5], the marble-burying behavior result is reported as “reduced marble-burying behavior” and the spontaneous locomotor activity result is listed as “no significant change”. Also, the antidepressant-like effects result in test [6] is recorded as “Antidepressant-like effects”. For the same molecule, the antidepressant-like effects result in test [7] is “Antidepressant-like effects”.

As to `CC(Oc1ccc2c(c1)c(=O)c(C(N)=O)cn2-c1ccc(F)cc1)c1cccnc1` (centres unmarked) [Compound 30, 1-(4-fluorophenyl)-4-oxo-6-(1-(pyridin-3-yl)ethoxy)-1,4-dihydroquinoline-3-carboxamide], in test [10], the IC50 amounted to 391 ± 44 nM and the remaining activity at 30 µM was determined as 1.31 ± 0.45%.
